# From patent EP1299350B1, “SUBSTITUTED BENZAMIDES FOR IMMUNE ENHANCEMENT AND FOR THE TREATMENT OF CANCER, INFECTION AND MANIC-DEPRESSIVE ILLNESS” (Active Biotech AB, priority 2000, dated 2002)
# Tested on: AP-1
# Assay: AP-1-driven luciferase reporter gene assay in Jurkat T cell line (Jurkat/AP-1rep), stimulated with phorbol myristate acetate and ionomycin
# Assay type: cell-based
# Conditions: Jurkat/AP-1rep cells stimulated for 5.5 h at 37°C with phorbol myristate acetate and ionomycin; luciferase luminescence; Figure 1
# Procedure: The compounds of general formula (I) were assayed for AP-1 enhancement. The compounds of this invention were tested in assays for the modulation of stimulated activity of an AP-1-driven reporter gene in the Jurkat T cell line. The activation of this reporter gene results in luciferase production and the amounts of produced luciferase parallels the level of AP-1 activity. A high level of AP-1 activity is pivotal to e.g. high production of IL-2.
# Cells from the Jurkat T cell line were transfected with an AP-1-driven luciferase gene reporter construct (Parra et al., 1997) together with a selection gene vector. Selected clones from the resulting stable AP-1 reporter gene transfectants were used in the assays for AP-1 transcription factor activity. These transfected Jurkat cells (Jurkat/AP-1rep) were grown in RPMI 1640 supplemented with glutamine, hepes, sodium pyruvate, gentamicin, 10% FCS and G418. To evaluate distinct compounds for their capacity to enhance the AP-1 activity, Jurkat/AP-1rep cells were stimulated for 5.5 h in the temperature of 37°C with phorbol myristate acetate and ionomycin in the absence and presence of test compounds. The 96 well plates containing the cell cultures were then put on ice until harvested. […] AP-1 activity was measured as luminiscence produced by luciferase substrate, which was added to the wells in conjunction with measurement.
structure (smiles),measurement,value
"CCN(CC)CCCNC(=O)c1ccc(NC(=O)C(C)C)cc1OC [Compound A, N-[(3-diethylamino)propyl]-4-isobutyrylamino-2-methoxybenzamide]",activity of the AP-1 driven reporter,enhance the activity of the AP-1 driven reporter in a dose dependent fashion down to µM concentrations
